Test results published in patent publication US4727090A, “Process for preparing and therapeutical applications of the 2,4,6-triiodophenol” (Bislak, S.A., priority 1983, dated 1988).

Assays:
[1] = Effects by parenteral administration compared with classical antirheumatics; type: in vivo; conditions: 1 mg/kg
[2] = Tolerability after three months administration in 200 cardiovascular patients; type: in vivo
Description: (§1) Hereunder we expose the clinical results obtained after the administration during three months of the 2,4,6-triiodophenol in 200 cardiovascular patients.
(§2) Sick persons were divided in 4 groups; (1) 50 patients with cerebral vascular insufficiency, (2) 50 patients with coronary insufficiency, (3) 50 patients with hepatic insufficiency and (4) 50 patients with peripheral vascular insufficiency of the lower extremities. All these persons received an intramuscular administration, a dosage of 30 mg/day of 2,4,6-triiodophenol, carrying out controls at the first, second and third month of all angiohemodynamic parameters, supposing a total of 600 controls (150 per each group after the three months).

Solubility = type: physicochemical
waste (minute volume) = test: Waste / minute volume by echo-Doppler in cardiovascular patients (peripheral hyperemia); type: in vivo; conditions: 30 mg/day intramuscular
Description: (§3) The technology used to show the hemodynamic changes was of the non-invasivetype, as in this way experiments can be repeated and are completely innoxious for the patient. Of all the non-invasive methods of diagnosis we selected the most reliable of actual conditions, which is the method of ultrasounds (echo and Doppler's effects). The bidimensional echocardiography in real time, combined with pulsatile Doppler and the bidimensional vascular echography combined with pulsatile Doppler hemodynamic, are actually the two most reliable non-invasive techniques for the study of the anatomic changes and macroscopic hemodynamics with regard to the cardiovascular apparatus. That's why we used for the study of the clinical effects of the 2,4,6-triiodophenol an echo-Doppler trade mark ATL (Mark V), being the transmission frequency of 3 MHz, as well as a continuous Doppler trade mark SONICAID of 4 and 8 MHz.
(§4) Patients were divided in four statistically acceptable groups (50 in each group), comparing the results obtained with this medicament before, during and after the treatment.
(§5) Methodologically there are practiced echographical cuts in real time of the heart, big vases, supra-aortic trunks, abdominal aorta, portal and caval systems and iliac and femoral arteries, obtaining fluxmetric samples Doppler in all the mentioned cardiac cavities and blood vessels to study the sense of the flow, outflow (stream) or volume of flow and the hemodynamic features of the sanguineous flow.
as §1, §2

[3] = tested on: arthrosis and atherosclerosis patients; test: Summary of 175 clinic cases treated; type: in vivo
Description: Summary of 175 clinic cases treated with 2,4,6-triiodophenol.

[4] = tested on: granuloma formed around cotton implant; test: Cotton implant granuloma test; type: in vivo, rats; conditions: 72 hours
Description: (B) To a group of 10 rats of about 200-225 g is implanted at the dorsal zone, subcutaneously, balled cotton (about 9 mg) impregnated and afterwards dried with a solution of medicamentous substance and which amount is known.
We use as reference Dexamethasone and controls without medicament.
After 72 hours, once the animal is sacrificed, the granuloma formed around the implant is extracted and weighed, after drying at 100° C.
The antiinflammatory reduces the weight of the granuloma.

vascular wall = test: Vascular wall distensibility by echo-Doppler in cardiovascular patients (antiatherosclerotic action); type: in vivo; conditions: 30 mg/day intramuscular
Description: as §3, §4, §5, §1, §2

cardiac contractility = test: Cardiac contractility in cardiovascular patients (inotropic effect); type: in vivo; conditions: 30 mg/day intramuscular
Description: as §3, §4, §5, §1, §2

velocity of blood flow = test: Speed of flow by echo-Doppler in cardiovascular patients (fluidifying + hemodynamizing action); type: in vivo; conditions: 30 mg/day intramuscular
Description: as §3, §4, §5, §1, §2

[5] = cerebral atherosclerosis, 37 patients
[6] = cervical arthrosis, 34 patients
[7] = obliterant atherosclerosis, 14 patients
[8] = vertebral arthrosis, 56 patients

SMILES: Oc1c(I)cc(I)cc1I [2,4,6-triiodophenol]
- Effects compared with aspirin and indomethacin at therapeutic dosages [1]: comparable and even higher
- Thyroid function ([2]; iodine concentration of the product): does not alter the thyroid function
- Toxic effect or secondary effects of clinical importance ([2]; three months administration, 30 mg/day intramuscular): does not produce any toxic effect or secondary effects of clinical importance in none of the patients
- Solubility in alkali solutions (Solubility; alkali solutions): soluble
- Solubility in chloroform and dichloromethane (Solubility; chloroform and dichloromethane): very soluble
- Solubility in organic dissolvents (Solubility; ethylic and propylic alcohols, acetone and sulfuric ether): somewhat soluble
- Solubility in water (Solubility; water): not very soluble
- Cardiac waste, variation (Δ %) (waste (minute volume); 1st month): +5%
- Cerebral minute volume, variation (Δ %) (waste (minute volume); 1st month): +23%
- Hepatic minute volume (venous), variation (Δ %) (waste (minute volume); 1st month): +24%
- Lower extremity minute volume, variation (Δ %) (waste (minute volume); 1st month): +10%
- Cardiac waste, variation (Δ %) (waste (minute volume); 2nd month): +6%
- Cerebral minute volume, variation (Δ %) (waste (minute volume); 2nd month): +27,6%
- Hepatic minute volume (venous), variation (Δ %) (waste (minute volume); 2nd month): +16%
- Lower extremity minute volume, variation (Δ %) (waste (minute volume); 2nd month): +24%
- Cardiac waste, variation (Δ %) (waste (minute volume); 3rd month): +11%
- Cerebral minute volume, variation (Δ %) (waste (minute volume); 3rd month): +34%
- Hepatic minute volume (venous), variation (Δ %) (waste (minute volume); 3rd month): +23%
- Lower extremity minute volume, variation (Δ %) (waste (minute volume); 3rd month): +30%
- Increase of volume of flow, cerebral (waste (minute volume); conclusions, three months): 34%
- Increase of volume of flow, hepatic (waste (minute volume); conclusions, three months): 23%
- Increase of volume of flow, lower member (waste (minute volume); conclusions, three months): 30%
- Increase of volume of flow, systemic circulatory minute (waste (minute volume); conclusions, three months): 11%
- % obtained results, B. (good) [3, 5]: 6,25%
- % obtained results, E. (excellent) [3, 5]: 81,25%
- % obtained results, N. (null) [3, 5]: 3,15%
- % obtained results, R. (regular) [3, 5]: 9,35%
- % obtained results, B. (good) [3, 6]: 3,22%
- % obtained results, E. (excellent) [3, 6]: 90,34%
- % obtained results, N. (null) [3, 6]: 3,22%
- % obtained results, R. (regular) [3, 6]: 3,22%
- % obtained results, B. (good) ([3]; hip arthrosis, 13 patients): 23,10%
- % obtained results, B. (good) ([3]; knee arthrosis, 16 patients): 12,5%
- % obtained results, E. (excellent) ([3]; knee arthrosis, 16 patients): 81,25%
- % obtained results, R. (regular) ([3]; knee arthrosis, 16 patients): 6,25%
- % obtained results, B. (good) ([3]; lumbar arthrosis, 4 patients): 25%
- % obtained results, E. (excellent) ([3]; lumbar arthrosis, 4 patients): 50%
- % obtained results, R. (regular) ([3]; lumbar arthrosis, 4 patients): 25%
- % obtained results, E. (excellent) ([3]; obliterant arthrosis, 1 patient): 100%
- % obtained results, B. (good) [3, 7]: 7,15%
- % obtained results, E. (excellent) [3, 7]: 92,85%
- (B) Good result, % of patients ([3]; total 175 patients): 7,43%
- (B) Good result, number of patients ([3]; total 175 patients): 13
- (E) Excellent result, % of patients ([3]; total 175 patients): 82,86%
- (E) Excellent result, number of patients ([3]; total 175 patients): 145
- (N) Null result, % of patients ([3]; total 175 patients): 1,71%
- (N) Null result, number of patients ([3]; total 175 patients): 3
- (R) Regular result, % of patients ([3]; total 175 patients): 8,00%
- (R) Regular result, number of patients ([3]; total 175 patients): 14
- % obtained results, B. (good) [3, 8]: 10,42%
- % obtained results, E. (excellent) [3, 8]: 83,33%
- % obtained results, R. (regular) [3, 8]: 6,25%
- % Reduction of the granuloma (Average) ([4]; 100 micrograms per implant): 19%
- % Reduction of the granuloma (Average) ([4]; 200 micrograms per implant): 28%
- % Reduction of the granuloma (Average) ([4]; 400 micrograms per implant): 44%
- Distensibility, abdominal aorta, variation (Δ %) (vascular wall; 2nd month): +29%
- Distensibility, caval iliac artery, variation (Δ %) (vascular wall; 2nd month): +28%
- Distensibility, portal carotid aorta, variation (Δ %) (vascular wall; 2nd month): +27%
- Distensibility, portal vein, variation (Δ %) (vascular wall; 2nd month): +29,5%
- Distensibility, post caval system, variation (Δ %) (vascular wall; 2nd month): +12%
- Distensibility, thoracic aorta, variation (Δ %) (vascular wall; 2nd month): +11%
- Distensibility, abdominal aorta, variation (Δ %) (vascular wall; 3rd month): +31%
- Distensibility, average value (arteries), variation (Δ %) (vascular wall; 3rd month): +26%
- Distensibility, average value (veins), variation (Δ %) (vascular wall; 3rd month): +24%
- Distensibility, caval iliac artery, variation (Δ %) (vascular wall; 3rd month): +29,5%
- Distensibility, portal carotid aorta, variation (Δ %) (vascular wall; 3rd month): +30%
- Distensibility, portal vein, variation (Δ %) (vascular wall; 3rd month): +32%
- Distensibility, post caval system, variation (Δ %) (vascular wall; 3rd month): +15%
- Distensibility, thoracic aorta, variation (Δ %) (vascular wall; 3rd month): +14%
- Improvement of the parietal dynamic of all arteries (vascular wall; conclusions, three months): 26%
- Improvement of the parietal dynamic of veins (vascular wall; conclusions, three months): 24%
- Distensibility, abdominal aorta, variation (Δ %) (vascular wall; first month): +18%
- Distensibility, caval iliac artery, variation (Δ %) (vascular wall; first month): +12%
- Distensibility, portal carotid aorta, variation (Δ %) (vascular wall; first month): +17%
- Distensibility, portal vein, variation (Δ %) (vascular wall; first month): +15%
- Distensibility, post caval system, variation (Δ %) (vascular wall; first month): +7%
- Distensibility, thoracic aorta, variation (Δ %) (vascular wall; first month): +7%
- Ejection fraction, variation (Δ %) (cardiac contractility; 1st month): -9,1%
- Ejection volume, variation (Δ %) (cardiac contractility; 1st month): -9%
- Telediastolic volume, variation (Δ %) (cardiac contractility; 1st month): -3%
- Telesystolic volume, variation (Δ %) (cardiac contractility; 1st month): +8%
- Ejection fraction, variation (Δ %) (cardiac contractility; 2nd month): -8,8%
- Ejection volume, variation (Δ %) (cardiac contractility; 2nd month): -8,4%
- Telediastolic volume, variation (Δ %) (cardiac contractility; 2nd month): -5%
- Telesystolic volume, variation (Δ %) (cardiac contractility; 2nd month): +11%
- Ejection fraction, variation (Δ %) (cardiac contractility; 3rd month): -8,6%
- Ejection volume, variation (Δ %) (cardiac contractility; 3rd month): -8%
- Telediastolic volume, variation (Δ %) (cardiac contractility; 3rd month): -6%
- Telesystolic volume, variation (Δ %) (cardiac contractility; 3rd month): +13%
- Speed of flow, abdominal aorta, variation (Δ %) (velocity of blood flow; 1st month): +3%
- Speed of flow, caval iliac artery, variation (Δ %) (velocity of blood flow; 1st month): +7%
- Speed of flow, portal carotid aorta, variation (Δ %) (velocity of blood flow; 1st month): +11%
- Speed of flow, portal system, variation (Δ %) (velocity of blood flow; 1st month): +16%
- Speed of flow, postcaval system, variation (Δ %) (velocity of blood flow; 1st month): +8%
- Speed of flow, thoracic aorta, variation (Δ %) (velocity of blood flow; 1st month): +2%
- Speed of flow, abdominal aorta, variation (Δ %) (velocity of blood flow; 2nd month): +5%
- Speed of flow, caval iliac artery, variation (Δ %) (velocity of blood flow; 2nd month): +11%
- Speed of flow, portal carotid aorta, variation (Δ %) (velocity of blood flow; 2nd month): +14%
- Speed of flow, portal system, variation (Δ %) (velocity of blood flow; 2nd month): +21%
- Speed of flow, postcaval system, variation (Δ %) (velocity of blood flow; 2nd month): +12%
- Speed of flow, thoracic aorta, variation (Δ %) (velocity of blood flow; 2nd month): +3%
- Speed of flow, abdominal aorta, variation (Δ %) (velocity of blood flow; 3rd month): +7%
- Speed of flow, average value (arteries), variation (Δ %) (velocity of blood flow; 3rd month): +11%
- Speed of flow, average value (veins), variation (Δ %) (velocity of blood flow; 3rd month): +17%
- Speed of flow, caval iliac artery, variation (Δ %) (velocity of blood flow; 3rd month): +14%
- Speed of flow, portal carotid aorta, variation (Δ %) (velocity of blood flow; 3rd month): +19%
- Speed of flow, portal system, variation (Δ %) (velocity of blood flow; 3rd month): +29%
- Speed of flow, postcaval system, variation (Δ %) (velocity of blood flow; 3rd month): +15%
- Speed of flow, thoracic aorta, variation (Δ %) (velocity of blood flow; 3rd month): +5%
- Increase of speed of the sanguineous flow in the arteries (velocity of blood flow; conclusions, three months): 11%
- Increase of speed of the sanguineous flow in the veins (velocity of blood flow; conclusions, three months): 17%
